Data taken from patent publication US20240376120A1, “CAMPTOTHECIN COMPOUND, PREPARATION METHOD THEREFOR AND USE THEREOF” (priority 2021, published 2024).
Read-outs that look alike come from different tables or passages of the source.

Assays:
Assay type in all cases: cell-based
Details in all cases: Homo sapiens, read-out: Proliferation inhibition IC50
[1] = test system: MCF-7 cells (human breast cancer cells); assay: MCF-7 cell proliferation inhibitory assay (CellTiter-Glo)
Experimental: • 1). […] Resuspend an appropriate amount of cell suspension to 4000 cells/100 μL according to the count, mixed well and then put the corresponding number of cells into a 96-well plate by pipette. • 3). Each hole of the edge was sealed with 100 μL DPBS and put into an incubator for culture. • 4). Day 1 drug addition: Prepare the storage solution of the compound to be tested 1 hour in advance. 24 h after plating, the culture medium was gradiently diluted to a concentration twice the final concentration of each group. Take out the plated cells from the incubator and add 100 μL of the corresponding 2-fold concentration medium to each well by pipette.
Day 1 detected: Take out the plate to be tested and an appropriate amount of CTG in advance and rewarm it at room temperature in the dark. 50 μL of CTG was added to each well at 24 h. Shake with the oscillator for 5 minutes, and after balancing in the dark for 5 minutes, detect the luminescence value with a microplate reader; The mixture was shaken for 5 min, and after equilibration in the dark for 5 min, the luminescence value was detected with ELISA. • 6). Day 4 detection: Take an appropriate amount of CTG 1 h in advance and rewarm it at room temperature in the dark. At the same time, take out the plate to be tested from the incubator and leave it to equilibrate at room temperature for 30 minutes; 72 h after adding the drug, 100 μL of culture medium was sucked out with pipette carefully from each cell well, and 50 μL of CTG was added. The mixture was shaken for 5 min, and after equilibration in the dark for 5 min, the luminescence value was detected with ELISA analyzer. • 7). Data analysis and processed.
Collect data and convert it into survival rate: Inhibition rate (%)=(100−(OD value of compound-OD value on the first day)/(OD value of control well-OD value on the first day))×100%
(§1) Input the compound into graphpad prism to obtain the corresponding IC50 value.

[2] = test system: MDA-MB-435s cells (human melanoma cells); assay: MDA-MB-435s cell proliferation inhibitory assay (CellTiter-Glo)
Experimental: (§2) • 1). […] Resuspend an appropriate amount of cell suspension to 3000 cells/100 μL according to the count, mixed well and then put the corresponding number of cells into a 96-well plate by pipette. • 3). Each hole of the edge was sealed with 100 μL DPBS and put into an incubator for culture. • 4). Day 1 drug addition: Prepare the storage solution of the compound to be tested 1 hour in advance. 24 h after plating, the culture medium was gradiently diluted to a concentration twice the final concentration of each group. Take out the plated cells from the incubator and add 100 μL of the corresponding 2-fold concentration medium to each well by pipette. • 5). Day 1 detected: Take out an appropriate amount of CTG 1 h in advance and the plate was allowed to equilibrate at room temperature for 30 min. 100 μL of CTG was added to each well and shaken for 5 mins, and then standed in the dark for 5 mins, the luminescence value was detected by ELISA. • 6). Day 4 detection: Take an appropriate amount of CTG 1 h in advance and rewarm it at room temperature in the dark. At the same time, take out the plate to be tested from the incubator and leave it to equilibrate at room temperature for 30 minutes; 72 h after adding the drug, 100 μL of culture medium was sucked out with pipette carefully from each cell well, and 100 μL of CTG was added. The mixture was shaken for 5 min, and after equilibration in the dark for 5 min, the luminescence value was detected with ELISA. • 7). Analyze data and write detailed experimental records.
Collect data and convert it into survival rate: Inhibition rate (%)=(100−(OD value of compound−OD value on the first day)/(OD value of control well-OD value on the first day))×100%
as §1

[3] = test system: MDA-MB-231 cells (human breast cancer cells); assay: MDA-MB-231 cell proliferation inhibitory assay (CellTiter-Glo)
Experimental: as §2, §1

[4] = MDA-MB-435s cells, 72 h after adding the drug, Table 3
[5] = MDA-MB-231 cells, 72 h after adding the drug, Table 2
[6] = MCF7, MCF-7 cells, 72 h after adding the drug, Table 1

Row | Structure (SMILES) | IC50 ([1]; MCF7, 72 h) [nM] | IC50 ([2]; MDA-MB-435S, 72 h) [nM] | IC50 ([3]; MDA-MB-231, 72 h) [nM] | IC50 [2, 4] [nM] | IC50 [3, 5] [nM] | IC50 [1, 6] [nM]
1 | CC[C@@H](N)c1c2c(nc3ccccc13)-c1cc3c(c(=O)n1C2)COC(=O)[C@]3(O)CC [Example 9R] | 55.3 | 15.3 | 180 | – | – | –
2 | CC[C@@]1(O)C(=O)OCc2c1cc1n(c2=O)Cc2c-1nc1cc(F)c(OC)cc1c2[C@H](C)O [Example 30c] | 8.1 | 3.8 | 12.2 | – | – | –
3 | CC[C@@]1(O)C(=O)OCc2c1cc1n(c2=O)Cc2c-1nc1cc(F)c(C)cc1c2[C@@H](C)N1CCN(C)CC1 [Example 42b] | 6.6 | 2.56 | 75.6 | – | – | –
4 | CC[C@@]1(O)C(=O)OCc2c1cc1n(c2=O)Cc2c-1nc1cc(F)c(C)cc1c2[C@@H](C)NC(C)=O [Compound 1f-1] | 15.2 | 5.8 | 110 | – | – | –
5 | CC[C@@]1(O)C(=O)OCc2c1cc1n(c2=O)Cc2c-1nc1cc(F)c(C)cc1c2[C@@H](C)NCCN(C)C [Example 25b] | 35.1 | 9.6 | 60.9 | – | – | –
6 | CC[C@@]1(O)C(=O)OCc2c1cc1n(c2=O)Cc2c-1nc1cc(F)c(C)c(C)c1c2[C@@H](C)N [Example 29b] | 2.1 | 0.72 | 6.6 | – | – | –
7 | CC[C@@]1(O)C(=O)OCc2c1cc1n(c2=O)Cc2c-1nc1cc(F)c(C)cc1c2[C@@H](C)NS(C)(=O)=O [Example 26a] | 13.3 | 2.8 | 89.2 | – | – | –
8 | CC[C@@]1(O)C(=O)OCc2c1cc1n(c2=O)Cc2c-1nc1cc(F)c(C)cc1c2[C@@H](C)N1CCNCC1 [Example 41b] | 19.6 | 3.86 | 30.5 | – | – | –
9 | CC[C@@]1(O)C(=O)OCc2c1cc1n(c2=O)Cc2c-1nc1cc(F)c(C)cc1c2[C@H](C)NC(=O)C1CCCCC1O (stereo partly drawn) [Example 26] | 35.2 | 5.6 | 150 | – | – | –
10 | CC[C@@]1(O)C(=O)OCc2c1cc1n(c2=O)Cc2c-1nc1cc3c(cc1c2[C@@H](C)N)OCCO3 [Example 36b] | 8.3 | 3.15 | 15.4 | – | – | –
11 | CC[C@@]1(O)C(=O)OCc2c1cc1n(c2=O)Cc2c-1nc1cc(F)c(C)cc1c2[C@H](C)N(C)C [Example 22] | 9.3 | 5.6 | 60.8 | – | – | –
12 | CC[C@@]1(O)C(=O)OCc2c1cc1n(c2=O)Cc2c-1nc1cc(F)c(C)cc1c2[C@@H]1CCN1 [Example 38a] | 5.6 | 1.12 | 16.6 | – | – | –
13 | CC[C@@]1(O)C(=O)OCc2c1cc1n(c2=O)Cc2c-1nc1cc3c(cc1c2[C@H](C)N)OCCO3 [Example 36a] | 15.2 | 6.33 | 26.3 | – | – | –
14 | CC[C@@]1(O)C(=O)OCc2c1cc1n(c2=O)Cc2c-1nc1ccc(O)cc1c2[C@@H](C)N [Example 5] | 12.3 | 20.3 | 600 | – | – | –
15 | CC[C@@]1(O)C(=O)OCc2c1cc1n(c2=O)Cc2c-1nc1cc(F)c(C)cc1c2[C@H](C)NC(=O)[C@H](O)C(F)(F)F [Example 18] | 11.3 | 10.3 | 150 | – | – | –
16 | CC[C@@]1(O)C(=O)OCc2c1cc1n(c2=O)Cc2c-1nc1cc(F)c(C)cc1c2[C@H](C)NC(=O)CO [Example 13] | 8.3 | – | – | 2.8 | 80.2 | –
17 | [2H]C([2H])([2H])[C@H](N)c1c2c(nc3cc(F)c(C)cc13)-c1cc3c(c(=O)n1C2)COC(=O)[C@]3(O)CC [Example 43a] | – | – | – | 3.31 | 16.8 | 5.1
18 | CC[C@@]1(O)C(=O)OCc2c1cc1n(c2=O)Cc2c-1nc1cc(F)c(C(F)(F)F)cc1c2[C@@H](C)N [Example 34b] | 4.2 | 2.85 | 8.8 | – | – | –
19 | CC[C@@]1(O)C(=O)OCc2c1cc1n(c2=O)Cc2c-1nc1cc(F)c(C)cc1c2[C@H](C)NCCNC [Example 25c] | 15.3 | 3.3 | 35.6 | – | – | –

Row | Structure (SMILES) | IC50 ([1]; MCF7, 72 h) [nM] | IC50 ([2]; MDA-MB-435S, 72 h) [nM] | IC50 ([3]; MDA-MB-231, 72 h) [nM] | IC50 [2, 4] [nM] | IC50 [3, 5] [nM] | IC50 [1, 6] [nM]
20 | CC[C@@]1(O)C(=O)OCc2c1cc1n(c2=O)Cc2c-1nc1cc(F)c(OC)cc1c2[C@H](C)N [Example 30a] | 6.3 | 3.3 | 11.6 | – | – | –
21 | CC[C@@]1(O)C(=O)OCc2c1cc1n(c2=O)Cc2c-1nc1cc(F)c(OC)cc1c2[C@@H](C)N [Example 30b] | 3.8 | 0.9 | 25 | – | – | –
22 | CC[C@@]1(O)C(=O)OCc2c1cc1n(c2=O)Cc2c-1nc1ccc(OC)cc1c2[C@H](C)N [Example 31a] | 8.2 | 3.8 | 15.1 | – | – | –
23 | CC[C@@]1(O)C(=O)OCc2c1cc1n(c2=O)Cc2c-1nc1ccc(O)cc1c2[C@H](C)O [Example 12-1] | 32.2 | 38.2 | 500 | – | – | –
24 | CC[C@@]1(O)C(=O)OCc2c1cc1n(c2=O)Cc2c-1nc1cc(F)c(C)cc1c2[C@H](N)C(F)(F)F [Example 40b] | 3.5 | 2.65 | 25.7 | – | – | –
25 | CC[C@@]1(O)C(=O)OCc2c1cc1n(c2=O)Cc2c-1nc1cc(F)c(C)cc1c2C1CNC1 [Example 37] | 5.1 | 2.33 | 90.8 | – | – | –
26 | CC[C@@]1(O)C(=O)OCc2c1cc1n(c2=O)Cc2c-1nc1ccc(O)cc1c2[C@H](C)N [Example 6] | 8.4 | 36.8 | 1100 | – | – | –
27 | CC[C@@]1(O)C(=O)OCc2c1cc1n(c2=O)Cc2c-1nc1ccc(OC)cc1c2[C@@H](C)O [Example 31d] | 8.1 | 2.3 | 8.3 | – | – | –
28 | CC[C@@]1(O)C(=O)OCc2c1cc1n(c2=O)Cc2c-1nc1cc(F)c(OC)cc1c2[C@@H](C)O [Example 30d] | 4.1 | 1.2 | 28.1 | – | – | –
29 | CC[C@@]1(O)C(=O)OCc2c1cc1n(c2=O)Cc2c-1nc1cc(F)c(C)cc1c2[C@H](C)NC(=O)C1(O)CC1 [Example 16] | 12.3 | 8.2 | 100 | – | – | –
30 | CC[C@@]1(O)C(=O)OCc2c1cc1n(c2=O)Cc2c-1nc1cc(F)c(C)cc1c2[C@@H](C)NCCNC [Example 25d] | – | – | – | 5.2 | 50.3 | 22.3
31 | CC[C@@]1(O)C(=O)OCc2c1cc1n(c2=O)Cc2c-1nc1cc(F)c(F)cc1c2[C@H](C)N [Example 33a] | 6.5 | 2.36 | 10.9 | – | – | –
32 | CC[C@@]1(O)C(=O)OCc2c1cc1n(c2=O)Cc2c-1nc1cc(F)c(C)cc1c2[C@H](C)N1CCN(C)CC1 [Example 42a] | 14.6 | 3.21 | 125 | – | – | –
33 | CC[C@@]1(O)C(=O)OCc2c1cc1n(c2=O)Cc2c-1nc1cc(F)c(C)cc1c2[C@H](C)NCCN(C)C [Example 25a] | 25.6 | 6.3 | 40.2 | – | – | –
34 | [2H]C([2H])([2H])[C@@H](N)c1c2c(nc3cc(F)c(C)cc13)-c1cc3c(c(=O)n1C2)COC(=O)[C@]3(O)CC [Example 43b] | – | – | – | 0.65 | 8 | 2.7
35 | CC[C@@]1(O)C(=O)OCc2c1cc1n(c2=O)Cc2c-1nc1cc(F)c(C)c(C)c1c2[C@H](C)N [Example 29a] | 4.5 | 2.1 | 10 | – | – | –
36 | CC[C@@]1(O)C(=O)OCc2c1cc1n(c2=O)Cc2c-1nc1cc3c(cc1c2[C@@H](C)N)OCO3 [Example 35b] | 6.2 | 1.15 | 7.1 | – | – | –
37 | CC[C@@]1(O)C(=O)OCc2c1cc1n(c2=O)Cc2c-1nc1cc(F)c(C)cc1c2C(C)(C)N [Example 7] | 20.2 | 162 | 320 | – | – | –
